From ChEMBL document CHEMBL1201862, “PubChem BioAssay data set” (2004)
Activity calls are given as the source filed them.

Experiments:
[1] = luciferase reporter signal suppression in cells – H4 neuroglioma cells, luminescence, dose response (AID 1990); format: functional, cell-based
[2] = alpha-synuclein stem-loop luciferase translation blockers – H4 neuroglioma cells, luminescence, confirmation (AID 1988); format: functional, cell-based
[3] = reduction of Shn3 3'UTR-driven luciferase in osteoblasts – cell-based, Clone20 osteoblasts, firefly luciferase, cherry-picked, dose response (AID 624132); format: functional;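 note: firefly luciferase luminescence from reporter carrying the Shn3 3'UTR in osteoblasts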
[4] = Shn3 3'UTR reporter signal decrease – cell-based, Clone20 osteoblasts, firefly luciferase, cherry-pick, set 2, Schnurri-3 inhibitor project, dose response (AID 720490); format: functional;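 note: actives lower the luminescence signal as inhibitors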
[5] = non-specific 3'UTR reporter inhibition in Clone20-Shn3RL – cell-based, Renilla luciferase, cherry-picked, counter-screen for Shn3 inhibitor project, dose response (AID 624133); format: functional
[6] = EF1alpha-driven Renilla reporter with control 3'UTR suppression – Clone20-Shn3RL cells, dual-Glo, cherry-pick, set 2, counter-screen for Shn3 3'UTR targeting project, dose response (AID 720724); format: functional, cell-based; details: Dual-Go Shn3RL
[7] = loss of viability in HepG2 cells – cell-based, CellTiter-Glo, cherry-picked, cytotoxicity control for Shn3 inhibitor project, dose response (AID 624134); format: functional
[8] = Shn3 transcript knock-down in Clone20 cells – cell-based, qPCR, cherry-pick, dose response (AID 743415); format: functional
[9] = fluconazole-exposed Candida albicans growth modulators – fluorescence, retest, confirmation (AID 2467); format: functional, cell-based
[10] = target: 1-phosphatidylinositol 4,5-bisphosphate phosphodiesterase gamma-1 (Homo sapiens, UniProt P19174); test: Counterscreen for inhibitors of phospholipase C isozymes (PLC-B3): Fluorescence-based biochemical high throughput dose response assay to identify inhibitors of phospholipase C isozymes (PLC-gamma1).
[11] = THP-1 cell cytotoxicity, dose response, cytotoxicity control for non-replicating M. tuberculosis project (AID 489025); format: functional
[12] = NIH-3T3 fibroblast cytotoxicity, dose response, cytotoxicity control, cell-based, fluorescence, Alamar Blue, secondary assay (AID 2327); format: functional;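 note: NIH-3T3 mouse fibroblasts cultured with fluconazole at 8 µg/mL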
[13] = target: 1-phosphatidylinositol 4,5-bisphosphate phosphodiesterase beta-3 (Homo sapiens, UniProt Q01970); test: Fluorescence-based biochemical high throughput dose response assay to identify inhibitors of phospholipase C isozymes (PLC-B3).
[14] = Vero E6 cell cytotoxicity, dose response, cytotoxicity control for non-replicating M. tuberculosis project, secondary assay (AID 492998); format: functional, VeroE6; details: Vero C1008
Streptococcus = test: GAS UMAA2166 growth inhibition – luminescence, BacTiterGlo, counter-screen for streptokinase expression inhibitor project, dose response (AID 1915); format: functional, organism-based;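 note: potency for reduction of bacterial viability or growth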
Streptokinase A = target: T1, Streptokinase A (Streptococcus pyogenes serotype M1, UniProt P10520); test: viability-normalized secreted streptokinase activity reduction – plasminogen activation absorbance, OD405, dose response (AID 1914); format: functional, Streptococcus pyogenes M1 GAS;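 note: secreted streptokinase activity via plasminogen activation per viability signal from cell pellet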
T1 sequence (P10520 whole entry): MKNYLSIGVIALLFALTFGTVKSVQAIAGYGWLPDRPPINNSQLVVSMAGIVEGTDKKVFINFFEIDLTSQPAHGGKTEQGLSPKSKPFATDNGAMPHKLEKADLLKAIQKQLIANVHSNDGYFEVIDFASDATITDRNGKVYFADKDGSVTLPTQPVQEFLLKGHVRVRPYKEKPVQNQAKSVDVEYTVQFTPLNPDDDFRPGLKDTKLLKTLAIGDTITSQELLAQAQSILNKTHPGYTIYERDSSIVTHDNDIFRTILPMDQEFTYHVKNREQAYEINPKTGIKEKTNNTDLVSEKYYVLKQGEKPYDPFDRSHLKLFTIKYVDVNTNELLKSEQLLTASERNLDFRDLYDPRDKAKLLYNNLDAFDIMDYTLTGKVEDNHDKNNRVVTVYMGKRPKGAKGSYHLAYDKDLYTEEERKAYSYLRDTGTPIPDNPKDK

cells [15] = format: functional
[16] = TB: CFU replicating Measured in Microorganism System Using Imaging - 7108-05_Inhibitor_Dose_DryPowder_Activity_Set2.; format: functional
[17] = tested on: Streptococcus sp. 'group A'; test: Streptococcus pyogenes SK(-)GAS viability under kanamycin – luminescence, BacTiterGlo, confirmation, counter-screen for streptokinase expression inhibitor project, dose response (AID 1900); format: functional, organism-based
[18] = blockers of FN fibrillogenesis by fibroblasts – AH1F cells, Alexa488-FN fluorescence, cherry-picks, dose response (AID 1035475); format: functional, cell-based
[19] = NIH3T3 cell viability loss – ATP luminescence, mouse fibroblasts, counter-screen, dose response (AID 2010); format: functional, cell-based;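 note: cells exposed to compound for about 90 hours before reading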
[20] = Trypanosoma cruzi growth suppression in host cells – NIH3T3 host cells, beta-gal luminescence, confirmation (AID 2044); format: functional, cell-based;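 note: intracellular parasites grown in NIH/3T3 mouse fibroblasts as host cells; luminescent beta-galactosidase reporter signal from transgenic T. cruzi replicating inside host cells; inhibitors lower the luminescence signal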
[21] = Luminescence-based cell-based high throughput dose response assay to identify activators of the DAF-12 from the parasite S. stercoralis (ssDAF-12).; format: functional
[22] = target: T2, Oxysterols receptor LXR-beta (Homo sapiens, UniProt P55055); test: LXR agonists, Gal4 luciferase reporter, dose response, counter-screen for ssDAF-12 agonist project, cell-based, luminescence, HEK293, S. stercoralis campaign (AID 720737); format: functional; details: read-out: IC50 (the source's name)
T2 sequence (P55055 whole entry): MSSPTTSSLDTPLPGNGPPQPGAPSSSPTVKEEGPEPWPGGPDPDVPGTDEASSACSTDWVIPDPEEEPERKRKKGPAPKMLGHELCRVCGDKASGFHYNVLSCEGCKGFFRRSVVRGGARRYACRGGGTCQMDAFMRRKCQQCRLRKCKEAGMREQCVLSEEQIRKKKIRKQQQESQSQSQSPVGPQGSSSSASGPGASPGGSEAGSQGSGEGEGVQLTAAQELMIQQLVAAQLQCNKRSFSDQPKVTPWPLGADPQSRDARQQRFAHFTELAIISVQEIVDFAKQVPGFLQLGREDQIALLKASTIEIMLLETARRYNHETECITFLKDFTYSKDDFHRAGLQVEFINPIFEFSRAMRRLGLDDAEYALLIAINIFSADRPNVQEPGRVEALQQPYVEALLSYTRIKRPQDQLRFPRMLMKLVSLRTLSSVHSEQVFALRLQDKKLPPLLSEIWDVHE

[23] = target: T3, Acyl-homoserine lactone acylase PvdQ (Pseudomonas aeruginosa (strain LESB58), UniProt Q9I194); test: PvdQ acylase enzyme activity blockers – biochemical, fluorescence, plate reader and imaging, cherry-picks, dose response (AID 493231)
T3 sequence (Q9I194 whole entry): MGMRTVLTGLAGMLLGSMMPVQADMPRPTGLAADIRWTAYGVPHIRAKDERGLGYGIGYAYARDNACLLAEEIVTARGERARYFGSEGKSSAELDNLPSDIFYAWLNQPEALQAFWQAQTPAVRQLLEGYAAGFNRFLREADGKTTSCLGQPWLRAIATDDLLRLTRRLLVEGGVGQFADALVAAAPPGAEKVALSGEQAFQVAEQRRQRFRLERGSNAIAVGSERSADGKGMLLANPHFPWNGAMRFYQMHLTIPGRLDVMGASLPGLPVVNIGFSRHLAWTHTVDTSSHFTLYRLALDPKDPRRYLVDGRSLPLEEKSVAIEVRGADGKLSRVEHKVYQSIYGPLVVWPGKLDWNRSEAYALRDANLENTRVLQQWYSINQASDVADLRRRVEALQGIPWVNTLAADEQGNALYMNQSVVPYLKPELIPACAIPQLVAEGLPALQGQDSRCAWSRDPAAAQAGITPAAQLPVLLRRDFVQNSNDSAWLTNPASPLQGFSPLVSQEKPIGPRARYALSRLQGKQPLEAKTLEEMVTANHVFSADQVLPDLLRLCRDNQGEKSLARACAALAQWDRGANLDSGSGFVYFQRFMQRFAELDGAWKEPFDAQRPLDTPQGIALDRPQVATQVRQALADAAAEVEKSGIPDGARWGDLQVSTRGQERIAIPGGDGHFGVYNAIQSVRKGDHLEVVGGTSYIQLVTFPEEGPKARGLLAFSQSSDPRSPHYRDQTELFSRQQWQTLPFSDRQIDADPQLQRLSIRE

[24] = target: T2, Oxysterols receptor LXR-beta; format: functional, cell-based
cells [25] = test: cells

1-phosphatidylinositol 4,5-bisphosphate phosphodiesterase beta-3, sequence (Q01970 whole entry): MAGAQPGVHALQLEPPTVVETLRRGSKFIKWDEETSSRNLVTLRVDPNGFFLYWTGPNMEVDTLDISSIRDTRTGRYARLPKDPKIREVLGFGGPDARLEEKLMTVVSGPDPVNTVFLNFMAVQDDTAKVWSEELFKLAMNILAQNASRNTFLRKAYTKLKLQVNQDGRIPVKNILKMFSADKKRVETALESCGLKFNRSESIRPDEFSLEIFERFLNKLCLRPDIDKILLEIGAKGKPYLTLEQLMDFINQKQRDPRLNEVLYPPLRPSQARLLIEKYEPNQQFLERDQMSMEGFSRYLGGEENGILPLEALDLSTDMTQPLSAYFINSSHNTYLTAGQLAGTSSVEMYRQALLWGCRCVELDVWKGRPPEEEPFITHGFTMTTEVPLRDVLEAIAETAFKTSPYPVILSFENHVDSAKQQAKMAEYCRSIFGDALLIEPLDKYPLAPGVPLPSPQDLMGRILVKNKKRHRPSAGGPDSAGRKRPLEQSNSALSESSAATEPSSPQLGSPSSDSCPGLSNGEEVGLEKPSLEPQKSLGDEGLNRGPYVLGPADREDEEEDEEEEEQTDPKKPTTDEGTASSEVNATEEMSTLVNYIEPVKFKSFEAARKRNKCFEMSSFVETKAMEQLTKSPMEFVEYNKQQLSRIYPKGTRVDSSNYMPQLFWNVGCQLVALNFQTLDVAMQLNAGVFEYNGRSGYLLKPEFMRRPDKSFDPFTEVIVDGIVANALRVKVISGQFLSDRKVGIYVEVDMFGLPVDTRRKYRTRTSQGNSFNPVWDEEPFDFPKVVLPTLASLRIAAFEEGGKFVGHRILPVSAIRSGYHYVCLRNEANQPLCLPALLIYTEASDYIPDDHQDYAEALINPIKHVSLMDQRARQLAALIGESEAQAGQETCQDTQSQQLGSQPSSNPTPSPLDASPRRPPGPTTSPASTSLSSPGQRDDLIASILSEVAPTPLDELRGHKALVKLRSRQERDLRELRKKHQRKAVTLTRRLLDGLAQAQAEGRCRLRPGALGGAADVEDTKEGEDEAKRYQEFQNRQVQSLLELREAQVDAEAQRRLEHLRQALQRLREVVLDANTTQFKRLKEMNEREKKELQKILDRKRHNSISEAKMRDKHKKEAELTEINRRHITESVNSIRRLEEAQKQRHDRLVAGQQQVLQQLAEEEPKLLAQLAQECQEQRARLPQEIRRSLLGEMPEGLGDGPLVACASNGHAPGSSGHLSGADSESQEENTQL
1-phosphatidylinositol 4,5-bisphosphate phosphodiesterase gamma-1, sequence (P19174 whole entry): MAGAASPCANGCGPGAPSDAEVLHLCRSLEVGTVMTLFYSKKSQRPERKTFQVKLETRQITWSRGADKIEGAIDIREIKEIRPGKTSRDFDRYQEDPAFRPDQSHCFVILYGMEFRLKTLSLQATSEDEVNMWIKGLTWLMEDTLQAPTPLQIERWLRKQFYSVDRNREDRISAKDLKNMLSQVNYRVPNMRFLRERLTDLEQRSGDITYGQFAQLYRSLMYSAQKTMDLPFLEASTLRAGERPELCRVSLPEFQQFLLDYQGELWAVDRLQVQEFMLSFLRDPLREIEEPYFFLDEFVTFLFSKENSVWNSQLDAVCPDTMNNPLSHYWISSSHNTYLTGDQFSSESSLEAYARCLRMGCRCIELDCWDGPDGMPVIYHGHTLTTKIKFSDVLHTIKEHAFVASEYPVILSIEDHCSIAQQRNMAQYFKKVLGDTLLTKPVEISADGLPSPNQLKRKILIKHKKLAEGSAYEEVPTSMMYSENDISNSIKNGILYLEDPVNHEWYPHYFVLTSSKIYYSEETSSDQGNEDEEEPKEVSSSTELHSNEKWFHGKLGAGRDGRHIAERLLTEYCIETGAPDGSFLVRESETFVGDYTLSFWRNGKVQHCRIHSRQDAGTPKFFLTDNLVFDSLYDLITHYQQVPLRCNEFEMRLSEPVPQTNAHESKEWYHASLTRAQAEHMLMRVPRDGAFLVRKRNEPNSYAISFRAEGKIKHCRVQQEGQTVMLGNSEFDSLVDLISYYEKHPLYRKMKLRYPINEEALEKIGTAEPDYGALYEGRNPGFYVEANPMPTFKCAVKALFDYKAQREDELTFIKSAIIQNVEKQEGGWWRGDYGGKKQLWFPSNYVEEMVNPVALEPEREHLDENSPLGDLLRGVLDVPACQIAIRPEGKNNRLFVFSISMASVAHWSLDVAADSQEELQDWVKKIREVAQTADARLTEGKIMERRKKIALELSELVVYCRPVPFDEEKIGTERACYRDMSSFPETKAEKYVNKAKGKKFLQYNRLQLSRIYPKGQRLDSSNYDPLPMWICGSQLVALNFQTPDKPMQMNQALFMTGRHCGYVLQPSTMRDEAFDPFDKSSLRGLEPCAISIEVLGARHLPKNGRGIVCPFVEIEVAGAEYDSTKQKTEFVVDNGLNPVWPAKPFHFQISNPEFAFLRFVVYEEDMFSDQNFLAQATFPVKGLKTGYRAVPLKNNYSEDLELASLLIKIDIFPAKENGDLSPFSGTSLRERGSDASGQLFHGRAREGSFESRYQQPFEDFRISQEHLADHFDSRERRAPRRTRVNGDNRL

COc1ccc(NC(=O)c2nc(S(=O)(=O)Cc3cccc(C)c3)ncc2Cl)c(OC)c1
EC50 [1]: 19.2 µM (active) | EC50 [2]: 36.7 µM (active) | AC50 [3]: 0.299 µM (active) | AC50 [4]: 1.48 µM (active) | AC50 [5]: 8.06 µM (active) | AC50 [6]: 3.35 µM (active) | AC50 [7]: > 70 µM (inactive) | AC50 [8]: 10 µM (active)

Cc1ccc(S(=O)(=O)CCC(=O)Nc2nc(-c3ccncc3)cs2)cc1
EC50 [9]: 6.58 µM (active) | IC50 [10]: > 122 µM (inactive) | CC50 [11]: > 40 µM (active) | EC50 [12]: 17.1 µM (inconclusive) | IC50 [13]: > 122 µM (inactive) | CC50 [14]: > 20 µM (active)

Cn1c(NC(=O)c2ccccc2)nc2ccccc21
CC50 [11]: > 40 µM (active) | EC50 (Streptococcus): > 150 µM (not active) | EC50 (Streptokinase A): > 150 µM (not active) | IC50 (cells [15]): 2.41 µM (active) | AbsAC90 [16]: 299.99 µM | EC50 [17]: 14.8 µM (active)

O=C(Nc1cc(Sc2nc3ccccc3s2)cc([N+](=O)[O-])c1)c1ccccc1F
AC50 [18]: 24.3 µM (active) | EC50 [19]: > 60 µM (not active) | EC50 [20]: 1.92 µM (active)

Cc1ccc([N+](=O)[O-])cc1NC(=O)C1CCCC1
IC50 [21]: > 67.5 µM (inactive) | EC50 [22]: > 67.5 µM (inactive)

COc1ccc(-c2cc(=O)c3ccccc3s2)cc1
AC50 [23]: > 100 µM (inactive) | EC50 [24]: > 67.5 µM (inactive) | EC50 (cells [25]): > 67.5 µM (inactive)
